Results reported in patent US8853213B2, “Bicyclic compound for modulating G protein-coupled receptors” (Hanmi Pharm. Co., Ltd, priority 2011, dated 2014).

Each compound was assayed against T1, GPR119 (Homo sapiens, UniProt Q8TDV5) (assay: Controlling Effect of GPR119 in CRE-bla CHO-K1 Cells (EC50)). Conditions: GPR119 CRE-bla CHO-K1 cell line, 5 hr incubation with compound, β-lactamase LiveBLAzer-FRET B/G readout; read-out: controlling effect against GPR119 in CRE-bla CHO-K1 cell line (EC50).
T1 construct: host or cells: CHO-K1 (CRE-bla reporter, doxycycline-induced)
T1 sequence (Q8TDV5 1-335): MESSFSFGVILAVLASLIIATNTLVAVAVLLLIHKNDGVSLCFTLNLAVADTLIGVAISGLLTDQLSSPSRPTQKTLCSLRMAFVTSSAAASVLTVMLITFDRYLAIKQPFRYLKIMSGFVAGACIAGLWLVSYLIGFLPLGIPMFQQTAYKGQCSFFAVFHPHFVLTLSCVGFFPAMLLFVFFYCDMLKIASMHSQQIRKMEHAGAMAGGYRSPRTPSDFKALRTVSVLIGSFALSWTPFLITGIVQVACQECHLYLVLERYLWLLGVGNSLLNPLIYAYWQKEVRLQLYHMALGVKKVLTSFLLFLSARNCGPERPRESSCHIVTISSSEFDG
Format: cell-based
Description: Controlling Effect of GPR119 in CRE-bla CHO-K1 Cells (EC50)
The day before the experiment, GPR119 CRE-bla CHO-K1 cell line purchased from Invitrogen was seeded in a 96 black well plate in an amount of 80 μl at a density of 5×10^4 cells. After the seeding, 10 μl of doxycycline in a concentration of 1 μg/ml was added to each well and incubated in an incubator at 37° C. under 5% CO2 for about 16 to 20 hr.
The day of experiment, sample compounds were performed a 10-fold serial dilution with a culture medium at various concentrations of 1 uM to […]. Considering that the culture medium used in the seeding and doxycycline are together applied, the sample compounds were diluted to a 5-fold dilution of the planned concentration. 20 μl of the compound diluted with the culture medium was added to each well and incubated in the incubator for 5 hr. The compound-untreated group was added with 20 μl of 0.5% dimethyl sulfoxide (DMSO) diluted with the culture medium. After 5 hr from the incubation, substrate mixture of a 6-fold concentration were prepared; 6 μl of 1 mM LiveBLAzer™-FRET B/G(CCF4-AM) substrate, 60 μl of solution B, 904 μl of solution C and 30 μl of solution D. 12 μl of the substrate mixture was added to each well and allowed to be kept at room temperature for 2 hr with shading the light. Fluorescence intensity value of blue channel and green channel was determined by a fluorescence microplate reader at 409 nm/460 nm and 409 nm/[…] (excitation/emission), respectively. In order to confirm the controlling effect of the inventive compounds against GPR119, EC50 (half maximal effective concentration) was determined based on the determined values. EC50, the concentration at which 50% activity of β-lactamase, was determined according to the following Equation: Equation=[(Ti−Tz)/(C−Tz)]×100
[Wherein, Ti: Cell density of the compound-treated group; Tz: Cell density of the negative control group; and C: Cell density of the positive control group]

| SMILES | EC50 |
| --- | --- |
| CC(C)c1noc(N2CC[C@H](Oc3ncnc4c(-c5ccc(S(C)(=O)=O)cc5)cn(C)c34)C2)n1 [Example 38, 4-[1-(3-isopropyl-[1,2,4]oxadiazol-5-yl)-pyrrolidin-3-yloxy]-7-(4-methanesulfonyl-phenyl)-5-methyl-5H-pyrrolo[3,2-d]pyrimidine] | > 1000 nM |
| Cn1cc(-c2ccc(S(C)(=O)=O)cc2)c2ncnc(OC3CCN(C(=O)NC(C)(C)C)CC3)c21 [Example 40, 4-[7-(4-methanesulfonyl-phenyl)-5-methyl-5H-pyrrolo[3,2-d]pyrimidin-4-yloxy]piperidin-1-carboxylic acid tert-butylamide] | 100 to 1000 nM |
| CC(C)c1noc(N2CCC(Oc3ncnc4c(-c5ccc(N)cc5)cn(C)c34)CC2)n1 [Example 41, 4-(4-(1-(3-isopropyl-1,2,4-oxadiazol-5-yl)piperidin-4-yloxy)-5-methyl-5H-pyrrolo[3,2-d]piperidin-7-yl)benzenamine] | > 1000 nM |
| CC(C)c1noc(N2CCC(Oc3ncnc4c(-c5ccc([N+](=O)[O-])cc5)cn(C)c34)CC2)n1 [Example 42, 3-isopropyl-5-(4-(5-methyl-7-(4-nitrophenyl)-5H-pyrrolo[3,2-d]pyrimidin-4-yloxy)piperidin-1-yl)-1,2,4-oxadiazole] | > 1000 nM |
| CC(C)N1CCC(Oc2ncnc3c(-c4ccc(S(C)(=O)=O)cc4)cn(C)c23)CC1 [Example 45, 4-(1-isopropyl-piperidin-4-yloxy)-7-(4-methanesulfonyl-phenyl)-5-methyl-5H-pyrrolo[3,2-d]pyrimidine] | 100 to 1000 nM |
| Cn1cc(-c2ccc(S(C)(=O)=O)cc2)c2ncnc(OC3CCN(C(=O)C(C)(C)C)CC3)c21 [Example 46, 1-{4-[7-(4-methanesulfonyl-phenyl)-5-methyl-5H-pyrrolo[3,2-d]pyrimidin-4-yloxy]-piperidin-1-yl}-2,2-dimethynyl-propan-1-one] | 100 to 1000 nM |
| Cn1cc(-c2ccc(F)nc2)c2ncnc(OC3CCN(C(=O)OC(C)(C)C)CC3)c21 [Example 47, tert-butyl 4-(7-(6-fluoropyridin-3-yl)-5-methyl-5H-pyrrolo[3,2-d]pyrimidin-4-yloxy)piperidine-1-carboxylate] | > 1000 nM |
| CC(C)(C)OC(=O)N1CCC(Oc2ncnc3c(-c4ccc(S(C)(=O)=O)cc4)csc23)CC1 [Example 50, tert-butyl 4-(7-(4-methanesulfonyl-phenyl)thieno[3,2-d]pyrimidin-4-yloxy)piperidine-1-carboxylate] | < 100 nM |
| CC(C)c1noc(N2CCC(Oc3ncnc4c(-c5ccc(S(C)(=O)=O)cc5)csc34)CC2)n1 [Example 51] | < 100 nM |
| CS(=O)(=O)c1ccc(-c2csc3c(OC4CCN(c5nc(CC6CC6)no5)CC4)ncnc23)cc1 [Example 52, 3-(cyclopropylmethyl)-5-(4-(7-(4-methanesulfonyl-phenyl)thieno[3,2-d]pyrimidin-4-yloxy)piperidin-1-yl)-1,2,4-oxadiazole] | < 100 nM |
| CC(C)(C)c1noc(N2CCC(Oc3ncnc4c(-c5ccc(S(C)(=O)=O)cc5)csc34)CC2)n1 [Example 53, 3-tert-butyl-5-(4-(7-(4-methanesulfonyl-phenyl)thieno[3,2-d]pyrimidin-4-yloxy)piperidin-1-yl)-1,2,4-oxadiazole] | < 100 nM |
| CS(=O)(=O)c1ccc(-c2csc3c(OC4CCN(c5nc(C6CCC6)no5)CC4)ncnc23)cc1 [Example 54, 3-cyclobutyl-5-(4-(7-(4-methanesulfonyl-phenyl)thieno[3,2-d]pyrimidin-4-yloxy)piperidin-1-yl)-1,2,4-oxadiazole] | < 100 nM |

Continued, values first:

| EC50 | SMILES |
| --- | --- |
| < 100 nM | CCc1cnc(N2CCC(Oc3ncnc4c(-c5ccc(S(C)(=O)=O)cc5F)cn(C)c34)CC2)nc1 [Example 29, 4-(1-(5-ethylpyrimidin-2-yl)piperidin-4-yloxy)-7-(2-fluoro-4-methanesulfonyl-phenyl)-5-methyl-5H-pyrrolo[3,2-d]pyrimidine] |
| < 100 nM | CCCc1cnc(N2CCC(Oc3ncnc4c(-c5ccc(S(C)(=O)=O)cc5F)cn(C)c34)CC2)nc1 [Example 30] |
| < 100 nM | Cn1cc(-c2ccc(S(C)(=O)=O)cc2F)c2ncnc(OC3CCN(c4ncc(C(F)(F)F)cn4)CC3)c21 [Example 31, 7-(2-fluoro-4-methanesulfonyl-phenyl)-5-methyl-4-(1-(5-(trifluoromethyl)pyrimidin-2-yl)piperidin-4-yloxy)-5H-pyrrolo[3,2-d]pyrimidine] |
| < 100 nM | CCc1cnc(N2CCC(Oc3ncnc4c(-c5ccc(S(C)(=O)=O)cc5)cn(CC)c34)CC2)nc1 [Example 32, 5-ethyl-4-(1-(5-ethylpyrimidin-2-yl)piperidin-4-yloxy)-7-(4-methanesulfonyl-phenyl)-5H-pyrrolo[3,2-d]pyrimidine] |
| < 100 nM | CCc1cnc(N2CCC(Oc3ncnc4c(-c5ccc(S(C)(=O)=O)cc5F)cn(CC)c34)CC2)nc1 [Example 33, 5-ethyl-4-(1-(5-ethylpyrimidin-2-yl)piperidin-4-yloxy)-7-(2-fluoro-4-methanesulfonyl-phenyl)-5H-pyrrolo[3,2-d]pyrimidine] |
| < 100 nM | CCCc1cnc(N2CCC(Oc3ncnc4c(-c5ccc(S(C)(=O)=O)cc5F)cn(CC)c34)CC2)nc1 [Example 34, 5-ethyl-7-(2-fluoro-4-methanesulfonyl-phenyl)-4-(1-(5-propylpyrimidin-2-yl)piperidin-4-yloxy)-5H-pyrrolo[3,2-d]pyrimidine] |
| < 100 nM | CC(C)c1noc(N2CCC(Oc3ncnc4c(-c5ccc(S(C)(=O)=O)cc5)cn(C)c34)CC2)n1 [Example 35, 3-isopropyl-5-(4-(5-methyl-7-(4-methanesulfonyl-phenyl)-5H-pyrrolo[3,2-d]pyrimidin-4-yloxy)piperidin-1-yl)-1,2,4-oxadiazole] |
| < 100 nM | CC(C)c1noc(N2CCC(Oc3ncnc4c(-c5ccc(S(C)(=O)=O)cc5F)cn(C)c34)CC2)n1 [Example 36, 5-(4-(7-(2-fluoro-4-methanesulfonyl-phenyl)-5-methyl-5H-pyrrolo[3,2-d]pyrimidin-4-yloxy)piperidin-1-yl)-3-isopropyl-1,2,4-oxadiazole] |
| < 100 nM | CCn1cc(-c2ccc(S(C)(=O)=O)cc2F)c2ncnc(OC3CCN(c4nc(C(C)C)no4)CC3)c21 [Example 37, 5-(4-(5-ethyl-7-(2-fluoro-4-methanesulfonyl-phenyl)-5H-pyrrolo[3,2-d]pyrimidin-4-yloxy)piperidin-1-yl)-3-isopropyl-1,2,4-oxadiazole] |
| 100 to 1000 nM | CCc1cnc(N2CC[C@H](Oc3ncnc4c(-c5ccc(S(C)(=O)=O)cc5)cn(C)c34)C2)nc1 [Example 39, 4-[1-(5-ethylpyrimidin-2-yl)-pyrrolidin-3-yloxy]-7-(4-methanesulfonyl-phenyl)-5-methyl-5H-pyrrolo[3,2-d]pyrimidine] |
| > 1000 nM | CCc1cnc(N2CCC(Oc3ncnc4c(-c5ccc(C#N)cc5)cn(C)c34)CC2)nc1 [Example 43, 4-{4-[1-(5-ethylpyrimidin-2-yl)-piperidin-4-yloxy]-5-methyl-5H-pyrrolo[3,2-d]pyrimidin-7-yl}-benzonitrile] |
| 100 to 1000 nM | CCc1cnc(N2CCC(Oc3ncnc4c(-c5ccc(C(C)=O)cc5)cn(C)c34)CC2)nc1 [Example 44, 1-(4-{4-[1-(5-ethylpyrimidin-2-yl)-piperidin-4-yloxy]-5-methyl-5H-pyrrolo[3,2-d]pyrimidin-7-yl}-phenyl)-ethanone] |
| > 1000 nM | CCc1cnc(N2CCC(Oc3ncnc4c(-c5ccc(F)nc5)cn(C)c34)CC2)nc1 [Example 48, 4-(1-(5-ethylpyrimidin-2-yl)piperidin-4-yloxy)-7-(6-fluoropyridin-3-yl)-5-methyl-5H-pyrrolo[3,2-d]pyrimidine] |
| 100 to 1000 nM | CCc1cnc(N2CCC(COc3ncnc4c(-c5ccc(S(C)(=O)=O)cc5)cn(C)c34)CC2)nc1 [Example 49, 4-((1-(5-ethylpyrimidin-2-yl)piperidin-4-yl)methoxy)-5-methyl-7-(4-methanesulfonyl-phenyl)-5H-pyrrolo[3,2-d]pyrimidine] |
| < 100 nM | CCc1cnc(N2CCC(Oc3ncnc4c(-c5ccc(S(C)(=O)=O)cc5)csc34)CC2)nc1 [Example 55, 4-(1-(5-ethylpyrimidin-2-yl)piperidin-4-yloxy)-7-(4-methanesulfonyl-phenyl)thieno[3,2-d]pyrimidine] |
